Test results published in patent publication US20210100246A1, “PYRIDYL-FORMAMIDINES HAVING A FUNGICIDAL ACTIVITY, THEIR AGRONOMIC COMPOSITIONS AND USE THEREOF” (ISAGRO, S.p.A., priority 2017, published 2021).

How the values were obtained:
Uromyces Appendiculatus = test: Preventive fungicidal activity (5 days) against Uromyces Appendiculatus on beans; type: in vivo
Description: Determination of the preventive fungicidal activity (5 days) against Uromyces Appendiculatus on beans.
(§1) Bean plants cv. Borlotto of Vigevano, grown in pots in a conditioned environment, were treated by spraying both sides with the products under examination in a hydroacetonic solution with 20% by volume of acetone (vol./vol.).
After remaining 5 days in a conditioned environment at 23° C. and 70% of relative humidity, the plants were sprayed on the lower side with an aqueous suspension of spores of Uromyces Appendiculatus (200,000 spores/cc); after remaining 24 hours in a humidity-saturated environment, they were re-transferred to the conditioned environment.
After this period, the external symptoms of the pathogen appeared and it was therefore possible to proceed with the visual evaluation of the intensity of the infection.
(§2) The fungicidal activity is expressed as a percentage of the reduction, with respect to non-treated seedlings (comparison), in the area of the leaf affected by the disease (100=full effectiveness; 0=zero effectiveness).

Sphaerotheca Fuliginea = test: Preventive fungicidal activity (7 days) against Sphaerotheca Fuliginea on cucumbers; type: in vivo
Description: Determination of the preventive fungicidal activity (7 days) against Sphaerotheca Fuliginea on cucumbers.
(§3) Cucumber plants cv. Lungo of China, grown in pots in a conditioned environment were treated by spraying both sides with the products under examination in a hydroacetonic solution with 20% by volume of acetone (vol./vol.).
7 days after the treatment, the plants were sprayed on the upper side with an aqueous suspension of spores of Sphaerotheca Fuliginea (200,000 spores/cc); they were then re-transferred to the conditioned environment.
At the end of the period of incubation (8 days), the evaluation of the intensity of the infection was finally effected.
as §2

cucumber seedlings = test: Phytotoxicity (percentage of leaf necrosis) on cucumber seedlings; type: in vivo; conditions: scale 0-100
Description: as §3
At the same time, an evaluation of the phytotoxicity was effected (percentage of leaf necrosis) induced on the cucumber seedlings by the application of the products: in this case the evaluation scale ranges from 0 (completely healthy plant) to 100 (completely necrotic plant).

wheat seedlings = test: Phytotoxicity (percentage of leaf necrosis) on wheat seedlings; type: in vivo; conditions: for Phytotoxicity % N.F. (leaf necrosis): wheat seedlings, scale 0-100
Description: (§4) Leaves of wheat plants of the Salgemma variety, grown in pots in a conditioned environment at 20° C. and 70% of Relative Humidity (RH) were treated by spraying both sides of the leaves with the compound under examination (see Table 4 hereunder) dispersed in a hydroacetonic solution at 20% by volume of acetone.
At the same time, an evaluation of the phytotoxicity was effected (percentage of leaf necrosis) induced on the wheat seedlings by the application of the products: in this case the evaluation scale ranges from 0 (completely healthy plant) to 100 (completely necrotic plant).

Puccinia Recondita = test: Preventive fungicidal activity (5 days) against Puccinia Recondita on wheat; type: in vivo; conditions: for Activity P5 NT (reduction of leaf area affected, parts developed during the test) / Activity P5 T (reduction of leaf area affected, parts treated directly) / effectiveness in containing the disease (in words): wheat; for Activity P5 NT (reduction of leaf area affected, parts developed during the test): non-treated parts (NT); for effectiveness in containing the disease (in words): summary of Table 4
Description: Determination of the preventive fungicidal activity (5 days) against Puccinia Recondita on wheat.
as §4
After remaining 5 days in a conditioned environment, the plants were sprayed on both sides of the leaves with an aqueous suspension of conidia of Puccinia Recondita (2 mg of inoculum per 1 ml of solution for infection).
After spraying, the plants were kept in a humidity-saturated environment at a temperature ranging from 18 to 24° C. for the incubation period of the fungus (1 day).
At the end of this period, the plants were put in a greenhouse with a relative humidity (RH) of 70% and at a temperature of 18-24° C. for 14 days.
At the end of this period, the external symptoms of the pathogen appeared and it was therefore possible to proceed with the visual evaluation of the intensity of the infection, both on the parts treated directly with the products (T) and on the parts developed during the implementation of the test (NT).
as §2

bean seedlings = test: Phytotoxicity (percentage of leaf necrosis) on bean seedlings; type: in vivo; conditions: scale 0-100
Description: as §1
At the same time, an evaluation of the phytotoxicity was effected (percentage of leaf necrosis) induced on the bean seedlings by the application of the products: in this case the evaluation scale ranges from 0 (completely healthy plant) to 100 (completely necrotic plant).

[1] = Accelerated stability test of 5% solutions in commercial solvents (54° C., 2 weeks, HPLC); type: physicochemical
Description: Stability tests of the compositions containing compounds having formula (I) in a solvent
In order to evaluate the chemical stability of the compounds having Formula (I) in a solvent, 5% solutions were prepared, containing 250 mg of compounds Nr. 1, 17, 39 and 40, dissolved in 4.75 g of various commercial solvents used for the preparation of emulsifiable concentrates.
The resulting solutions were put in an oven at 54° C. for 2 weeks (according to Cipac MT 46.1 update 2012) and then analyzed by means of HPLC in order to verify the concentration of the active ingredient contained therein. The percentage of degradation of the compound having Formula (I) was therefore obtained, after the accelerated stability test.

[2] = solvent ADMA 10 (N,N-dimethyldecanamide)
[3] = solvent Alkamuls T/20 (ethoxylated sorbitan monolaurate)
[4] = solvent CME (rapeseed methyl ester)
[5] = solvent FMPC (N-formylmorpholine and propylene carbonate)
[6] = solvent Green 25 (dimethylsulfoxide, acetophenone, 2-ethylhexyl acetate)
[7] = solvent Purasolv BL (butyl lactate)
[8] = solvent RPDE (dimethyl glutarate, dimethyl succinate, dimethyl adipate)

Row | Compound | Activity P5 (Uromyces Appendiculatus; 30 ppm) | Activity P5 (Uromyces Appendiculatus; 125 ppm) | Activity P5 (Sphaerotheca Fuliginea; 30 ppm) | Activity P5 (Sphaerotheca Fuliginea; 125 ppm) | Activity P5 NT (reduction of leaf area affected, parts developed during the test) (Puccinia Recondita; 125 ppm) | Activity P5 T (reduction of leaf area affected, parts treated directly) (Puccinia Recondita; 125 ppm) | Activity P5 NT (reduction of leaf area affected, parts developed during the test) (Puccinia Recondita; 250 ppm) | Activity P5 T (reduction of leaf area affected, parts treated directly) (Puccinia Recondita; 250 ppm) | effectiveness in containing the disease (in words) (Puccinia Recondita) | Phytotoxicity % N.F. (leaf necrosis) (wheat seedlings; 125 ppm) | Phytotoxicity % N.F. (leaf necrosis) (wheat seedlings; 250 ppm) | symptoms of phytotoxicity on the plant (in words) (wheat seedlings; wheat, summary of Table 4) | Phytotoxicity % N.F. (leaf necrosis) (bean seedlings; 30 ppm) | Phytotoxicity % N.F. (leaf necrosis) (bean seedlings; 125 ppm) | percentage of degradation [1, 2] | percentage of degradation [1, 3] | percentage of degradation [1, 4] | percentage of degradation [1, 5] | percentage of degradation [1, 6] | percentage of degradation ([1]; solvent Propylene carbonate) | other results
1 | N-ethyl-N-methyl-N′-[5-bromo-2-methyl-6-[(4-methylpentyloxy]pyridyl-3-formamidine [CR2, reference compound] | 80% | 90% | 75% | 85% | – | – | – | – | – | – | – | – | – | – | – | – | – | – | – | – | –
2 | CCN(C)C=Nc1cc(C)c(SCc2cccc(C(F)(F)F)c2)nc1C [Compound 3, N-ethyl-N-methyl-N′-2,5-dimethyl-6-{[3(trifluoromethyl)benzyl]thio}pyridyl-3-formamidine] | 100% | 100% | 98% | 100% | 93% | 100% | 98% | 100% | effective in containing the disease | – | – | – | – | – | – | – | – | – | – | – | Phytotoxicity % N.F. (leaf necrosis) (cucumber seedlings; 30 ppm): 1 % N.F.; Phytotoxicity % N.F. (leaf necrosis) (cucumber seedlings; 125 ppm): 3 % N.F.; symptoms of phytotoxicity on the plant (in words) (wheat seedlings; in vivo): do not show any symptoms of phytotoxicity
3 | CCN(C)C=Nc1cc(Br)c(OCCC(C)C)nc1C [CR1, N-ethyl-N-methyl-N′-[5-bromo-2-methyl-6-(3-methyl-butyloxy)-3-pyridyl]-formamidine, reference compound] | – | – | – | – | 20% | 60% | 50% | 80% | – | 5 % N.F. | 10 % N.F. | – | – | – | – | – | – | – | – | – | –
4 | CCN(C)C=Nc1cc(C)c(SCCC(C)C)nc1C [Compound 2] | 100% | 100% | 99% | 100% | 85% | 100% | 95% | 100% | effective in containing the disease | 0 % N.F. | 0 % N.F. | do not show any symptoms of phytotoxicity | 0 % N.F. | 0 % N.F. | – | – | – | – | – | – | Phytotoxicity % N.F. (leaf necrosis) (cucumber seedlings; 30 ppm): 0 % N.F.; Phytotoxicity % N.F. (leaf necrosis) (cucumber seedlings; 125 ppm): 2 % N.F.
5 | CCN(C)C=Nc1cc(C)c(SCc2c(F)cccc2F)nc1C [Compound 39] | 100% | 100% | – | – | 88% | 95% | 97% | 98% | effective in containing the disease | 0 % N.F. | 0 % N.F. | do not show any symptoms of phytotoxicity | 0 % N.F. | 0 % N.F. | 0% | 79.78% | 17.31% | 1.53% | 1.84% | 0.61% | percentage of degradation [1, 7]: 100%; percentage of degradation [1, 8]: 1.13%
6 | CCN(C)C=Nc1cc(Br)c(SCCC(C)C)nc1C [Compound 5] | – | – | – | – | 45% | 85% | 65% | 100% | effective in containing the disease | 0 % N.F. | 0 % N.F. | do not show any symptoms of phytotoxicity | – | – | – | – | – | – | – | – | activity compared with CR1 (in words) (Puccinia Recondita; also at low dosages (125 ppm)): more active
7 | CCN(C)C=Nc1cc(C)c(SCC2CCCCC2)nc1C [Compound 40] | 100% | 100% | – | – | 55% | 80% | 70% | 90% | effective in containing the disease | 0 % N.F. | 0 % N.F. | do not show any symptoms of phytotoxicity | 0 % N.F. | 0 % N.F. | 1.09% | 81.02% | 12.76% | 0% | 2.82% | 0% | percentage of degradation [1, 7]: 100%; percentage of degradation [1, 8]: 1.71%
8 | CCCCCCSc1nc(C)c(N=CN(C)CC)cc1C [Compound 17] | 100% | 100% | – | – | 55% | 95% | 65% | 98% | effective in containing the disease | 0 % N.F. | 0 % N.F. | do not show any symptoms of phytotoxicity | 0 % N.F. | 0 % N.F. | 1.57% | 74.78% | 16% | 0.79% | 2.96% | 0% | percentage of degradation [1, 7]: 100%; percentage of degradation [1, 8]: 1.93%
